Measurements published in PubChem BioAssay (NCI).
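GI50 is the concentration that inhibits growth by half. TGI: concentration producing complete growth inhibition.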

Columns and labels:
Experiment in all cases: DTP human tumour cell line panel, 384-well format
IGROV1 ovarian = system: IGROV1 ovarian
SK-MEL-2 melanoma = system: SK-MEL-2 melanoma
MDA-MB-435 melanoma = system: MDA-MB-435 melanoma
SNB-19 CNS = system: SNB-19 CNS
A498 renal = system: A498 renal
NCI-H522 lung = system: NCI-H522 lung
LOX IMVI melanoma = system: LOX IMVI melanoma
OVCAR-4 ovarian = system: OVCAR-4 ovarian
RPMI-8226 leukemia = system: RPMI-8226 leukemia
SR leukemia = system: SR leukemia
NCI-H322M lung = system: NCI-H322M lung
COLO 205 colon = system: COLO 205 colon
SK-OV-3 ovarian = system: SK-OV-3 ovarian
CAKI-1 renal = system: CAKI-1 renal
OVCAR-8 ovarian = system: OVCAR-8 ovarian
PC-3 prostate = system: PC-3 prostate
HOP-92 NSCLC = system: HOP-92 NSCLC
KM12 colon = system: KM12 colon
RXF 393 renal = system: RXF 393 renal
NCI-H226 lung = system: NCI-H226 lung
T-47D breast = system: T-47D breast
A549 NSCLC = system: A549 NSCLC
NCI/ADR-RES ovarian = system: NCI/ADR-RES ovarian
HCT-15 colon = system: HCT-15 colon
SN12C renal = system: SN12C renal
ACHN renal = system: ACHN renal
U251 glioblastoma = system: U251 glioblastoma
NCI-H23 lung = system: NCI-H23 lung
UACC-62 melanoma = system: UACC-62 melanoma
M14 melanoma = system: M14 melanoma
MDA-MB-468 breast = system: MDA-MB-468 breast
UO-31 renal = system: UO-31 renal
TK-10 renal = system: TK-10 renal
786-0 renal = system: 786-0 renal
DU-145 prostate = system: DU-145 prostate
SK-MEL-28 melanoma = system: SK-MEL-28 melanoma
SF-295 CNS = system: SF-295 CNS
HT29 colon = system: HT29 colon
SF-268 CNS = system: SF-268 CNS
OVCAR-3 ovarian = system: OVCAR-3 ovarian
HL-60(TB) leukemia = system: HL-60(TB) leukemia
MCF7 breast = system: MCF7 breast
HCT-116 colon = system: HCT-116 colon
UACC-257 melanoma = system: UACC-257 melanoma
MALME-3M melanoma = system: MALME-3M melanoma
BT-549 breast = system: BT-549 breast
MDA-MB-231 breast = system: MDA-MB-231 breast
OVCAR-5 ovarian = system: OVCAR-5 ovarian
HCC-2998 colon = system: HCC-2998 colon
SK-MEL-5 melanoma = system: SK-MEL-5 melanoma
SF-539 CNS = system: SF-539 CNS
HOP-62 NSCLC = system: HOP-62 NSCLC
NCI-H460 NSCLC = system: NCI-H460 NSCLC

Compound `Cc1cccc2c1NC(=O)[C@@H](NC(=O)[C@H](CCC(F)(F)F)[C@H](CCC(F)(F)F)C(N)=O)N=C2c1cccc(F)c1` has a GI50 (IGROV1 ovarian) of 34.1 µM, a TGI (IGROV1 ovarian) of over 100 µM and a GI50 (SK-MEL-2 melanoma) of 16.9 µM. It also gave a TGI (SK-MEL-2 melanoma) of 58.5 µM, a GI50 (MDA-MB-435 melanoma) of over 100 µM and a TGI (MDA-MB-435 melanoma) of over 100 µM. For the same compound, the GI50 (SNB-19 CNS) was 37.7 µM, the TGI (SNB-19 CNS) was over 100 µM and the GI50 (A498 renal) was 7.76 µM. It also gave a TGI (A498 renal) of 51.6 µM, a GI50 (NCI-H522 lung) of 8.01 µM and a TGI (NCI-H522 lung) of 26.1 µM. For the same compound, the GI50 (LOX IMVI melanoma) was over 100 µM, the TGI (LOX IMVI melanoma) was over 100 µM and the GI50 (OVCAR-4 ovarian) was 18 µM. It also gave a TGI (OVCAR-4 ovarian) of 40.8 µM, a GI50 (RPMI-8226 leukemia) of 5.27 µM and a TGI (RPMI-8226 leukemia) of over 100 µM. It also gave a GI50 (SR leukemia) of 1.25 µM, a TGI (SR leukemia) of 2.54 µM and a GI50 (NCI-H322M lung) of 46.8 µM. For the same compound, the TGI (NCI-H322M lung) was over 100 µM, the GI50 (COLO 205 colon) was 37.5 µM and the TGI (COLO 205 colon) was over 100 µM. For the same compound, the GI50 (SK-OV-3 ovarian) was 19.3 µM, the TGI (SK-OV-3 ovarian) was 46.8 µM and the GI50 (CAKI-1 renal) was 13.3 µM. For the same compound, the TGI (CAKI-1 renal) was 26.8 µM, the GI50 (OVCAR-8 ovarian) was 21.5 µM and the TGI (OVCAR-8 ovarian) was 62.5 µM. For the same compound, the GI50 (PC-3 prostate) was over 100 µM, the TGI (PC-3 prostate) was over 100 µM and the GI50 (HOP-92 NSCLC) was 16.2 µM. The TGI (HOP-92 NSCLC) was 49.6 µM, the GI50 (KM12 colon) was over 100 µM and the TGI (KM12 colon) was over 100 µM. For the same compound, the GI50 (RXF 393 renal) was 5.72 µM, the TGI (RXF 393 renal) was 22.9 µM and the GI50 (NCI-H226 lung) was 17.7 µM. It also gave a TGI (NCI-H226 lung) of 75.1 µM, a GI50 (T-47D breast) of 25.2 µM and a TGI (T-47D breast) of over 100 µM. For the same compound, the GI50 (A549 NSCLC) was 31.6 µM, the TGI (A549 NSCLC) was over 100 µM and the GI50 (NCI/ADR-RES ovarian) was 56.3 µM. The TGI (NCI/ADR-RES ovarian) was over 100 µM, the GI50 (HCT-15 colon) was over 100 µM and the TGI (HCT-15 colon) was over 100 µM. It also gave a GI50 (SN12C renal) of 70.1 µM, a TGI (SN12C renal) of over 100 µM and a GI50 (ACHN renal) of 17.9 µM. For the same compound, the TGI (ACHN renal) was 64.5 µM, the GI50 (U251 glioblastoma) was 13.7 µM and the TGI (U251 glioblastoma) was 72.9 µM. The GI50 (NCI-H23 lung) was 26.8 µM, the TGI (NCI-H23 lung) was 82 µM and the GI50 (UACC-62 melanoma) was 14.9 µM. For the same compound, the TGI (UACC-62 melanoma) was over 100 µM, the GI50 (M14 melanoma) was 19.7 µM and the TGI (M14 melanoma) was over 100 µM. The GI50 (MDA-MB-468 breast) was 13.9 µM, the TGI (MDA-MB-468 breast) was 92 µM and the GI50 (UO-31 renal) was 25.6 µM. For the same compound, the TGI (UO-31 renal) was 69.5 µM, the GI50 (TK-10 renal) was 38.4 µM and the TGI (TK-10 renal) was over 100 µM. The GI50 (786-0 renal) was 22.2 µM, the TGI (786-0 renal) was over 100 µM and the GI50 (DU-145 prostate) was 24.6 µM. For the same compound, the TGI (DU-145 prostate) was over 100 µM, the GI50 (SK-MEL-28 melanoma) was 22.5 µM and the TGI (SK-MEL-28 melanoma) was 68 µM. It also gave a GI50 (SF-295 CNS) of 24.3 µM, a TGI (SF-295 CNS) of 60 µM and a GI50 (HT29 colon) of over 100 µM. The TGI (HT29 colon) was over 100 µM, the GI50 (SF-268 CNS) was 17 µM and the TGI (SF-268 CNS) was 41.3 µM. The GI50 (OVCAR-3 ovarian) was 20 µM, the TGI (OVCAR-3 ovarian) was over 100 µM and the GI50 (HL-60(TB) leukemia) was 1.61 µM. It also gave a TGI (HL-60(TB) leukemia) of 3.05 µM, a GI50 (MCF7 breast) of 12 µM and a TGI (MCF7 breast) of over 100 µM. For the same compound, the GI50 (HCT-116 colon) was 20.1 µM, the TGI (HCT-116 colon) was over 100 µM and the GI50 (UACC-257 melanoma) was 16.3 µM. It also gave a TGI (UACC-257 melanoma) of 55 µM, a GI50 (MALME-3M melanoma) of 19.2 µM and a TGI (MALME-3M melanoma) of 69.7 µM. It also gave a GI50 (BT-549 breast) of 14.7 µM, a TGI (BT-549 breast) of 48.3 µM and a GI50 (MDA-MB-231 breast) of 15.7 µM. The TGI (MDA-MB-231 breast) was 92.6 µM, the GI50 (OVCAR-5 ovarian) was 37.7 µM and the TGI (OVCAR-5 ovarian) was over 100 µM. For the same compound, the GI50 (HCC-2998 colon) was 25.9 µM, the TGI (HCC-2998 colon) was over 100 µM and the GI50 (SK-MEL-5 melanoma) was 25.3 µM. The TGI (SK-MEL-5 melanoma) was over 100 µM, the GI50 (SF-539 CNS) was 16.3 µM and the TGI (SF-539 CNS) was 34.1 µM. It also gave a GI50 (HOP-62 NSCLC) of 20.4 µM, a TGI (HOP-62 NSCLC) of 49.6 µM and a GI50 (NCI-H460 NSCLC) of 4.08 µM. The TGI (NCI-H460 NSCLC) was over 100 µM.
